Results published in ChEMBL document CHEMBL3885881, “DrugMatrix”.

Species on record: Rattus norvegicus
Test: DrugMatrix - Regimen: Daily Repeat
Type: toxicity, organism-based, Sprague-Dawley
Parameters: regimen Daily Repeat, gender Male, age 6-8 weeks
Settings: in vivo, po, route oral GAVAGE, vehicle 100 % WATER; for ABSOLUTE BASOPHIL / ABSOLUTE EOSINOPHIL / ABSOLUTE LYMPHOCYTE / ABSOLUTE MONOCYTE / ABSOLUTE SEGMENTED NEUTROPHIL / BASOPHIL / EOSINOPHIL / ERYTHROCYTE COUNT / HEMATOCRIT / HEMOGLOBIN / LEUKOCYTE COUNT / LYMPHOCYTE / MEAN CORPUSCULAR HEMOGLOBIN / MEAN CORPUSCULAR HEMOGLOBIN CONCENTRATION / MEAN CORPUSCULAR VOLUME / MONOCYTE / NEUTROPHIL / NUCLEATED RED BLOOD CELLS / PLATELET COUNT: tissue Blood; for ALANINE AMINOTRANSFERASE / ALBUMIN / ALKALINE PHOSPHATASE / ASPARTATE AMINOTRANSFERASE / BLOOD UREA NITROGEN / CARBON DIOXIDE / CHLORIDE / CHOLESTEROL / CREATINE PHOSPHOKINASE / CREATININE / GLUCOSE / LACTATE DEHYDROGENASE / LIPASE / PHOSPHORUS / POTASSIUM / SODIUM / TOTAL BILIRUBIN / TOTAL PROTEIN / URIC ACID: tissue Plasma
[1] = 0 mg/kg, 72 h, dose level Control, time 3 day
[2] = 0 mg/kg, 120 h, dose level Control, time 5 day
[3] = 11 mg/kg, 72 h, dose level Low, time 3 day

Compound: CN(C)C(=O)Oc1cccc([N+](C)(C)C)c1.[Br-] [NEOSTIGMINE BROMIDE]
- ABSOLUTE BASOPHIL [1]: 0 CELLS/uL
- ABSOLUTE EOSINOPHIL [1]: 32.5 CELLS/uL
- ABSOLUTE LYMPHOCYTE [1]: 9305.83 CELLS/uL
- ABSOLUTE MONOCYTE [1]: 43.83 CELLS/uL
- ABSOLUTE SEGMENTED NEUTROPHIL [1]: 817.83 CELLS/uL
- BASOPHIL [1]: 0%
- EOSINOPHIL [1]: 0.33%
- ERYTHROCYTE COUNT [1]: 5.38 x10E6/uL
- HEMATOCRIT [1]: 33.63%
- HEMOGLOBIN [1]: 13.17 G/DL
- LEUKOCYTE COUNT [1]: 10.2 x10E3/uL
- LYMPHOCYTE [1]: 91.17%
- MEAN CORPUSCULAR HEMOGLOBIN [1]: 24.5 pg
- MEAN CORPUSCULAR HEMOGLOBIN CONCENTRATION [1]: 39.13 G/DL
- MEAN CORPUSCULAR VOLUME [1]: 62.53 fL
- MONOCYTE [1]: 0.5%
- NEUTROPHIL [1]: 8%
- NUCLEATED RED BLOOD CELLS [1]: 0.17 /100WBC
- PLATELET COUNT [1]: 858 x10E3/uL
- ALANINE AMINOTRANSFERASE [1]: 55.67 u/L
- ALBUMIN [1]: 4.07 G/DL
- ALKALINE PHOSPHATASE [1]: 337 u/L
- ASPARTATE AMINOTRANSFERASE [1]: 84 u/L
- BLOOD UREA NITROGEN [1]: 13.17 mg/dL
- CARBON DIOXIDE [1]: 34.17 mmol/L
- CHLORIDE [1]: 99.33 MEQ/L
- CHOLESTEROL [1]: 78.83 mg/dL
- CREATINE PHOSPHOKINASE [1]: 576.83 u/L
- CREATININE [1]: 0.17 mg/dL
- GLUCOSE [1]: 152.67 mg/dL
- LACTATE DEHYDROGENASE [1]: 147.83 u/L
- LIPASE [1]: 9.5 u/L
- PHOSPHORUS [1]: 10.78 mg/dL
- POTASSIUM [1]: 6.34 MEQ/L
- SODIUM [1]: 144.12 MEQ/L
- TOTAL BILIRUBIN [1]: 0.18 mg/dL
- TOTAL PROTEIN [1]: 6.08 G/DL
- URIC ACID [1]: 0.65 mg/dL
- ABSOLUTE BASOPHIL [2]: 0 CELLS/uL
- ABSOLUTE EOSINOPHIL [2]: 31.17 CELLS/uL
- ABSOLUTE LYMPHOCYTE [2]: 7918.33 CELLS/uL
- ABSOLUTE MONOCYTE [2]: 58.33 CELLS/uL
- ABSOLUTE SEGMENTED NEUTROPHIL [2]: 725.5 CELLS/uL
- BASOPHIL [2]: 0%
- EOSINOPHIL [2]: 0.33%
- ERYTHROCYTE COUNT [2]: 5.32 x10E6/uL
- HEMATOCRIT [2]: 33.53%
- HEMOGLOBIN [2]: 13.17 G/DL
- LEUKOCYTE COUNT [2]: 8.73 x10E3/uL
- LYMPHOCYTE [2]: 90.33%
- MEAN CORPUSCULAR HEMOGLOBIN [2]: 24.82 pg
- MEAN CORPUSCULAR HEMOGLOBIN CONCENTRATION [2]: 39.33 G/DL
- MEAN CORPUSCULAR VOLUME [2]: 63.12 fL
- MONOCYTE [2]: 0.67%
- NEUTROPHIL [2]: 8.67%
- NUCLEATED RED BLOOD CELLS [2]: 0 /100WBC
- PLATELET COUNT [2]: 1144.83 x10E3/uL
- ALANINE AMINOTRANSFERASE [2]: 60.5 u/L
- ALBUMIN [2]: 3.97 G/DL
- ALKALINE PHOSPHATASE [2]: 343.17 u/L
- ASPARTATE AMINOTRANSFERASE [2]: 80.83 u/L
- BLOOD UREA NITROGEN [2]: 15 mg/dL
- CARBON DIOXIDE [2]: 31 mmol/L
- CHLORIDE [2]: 99.75 MEQ/L
- CHOLESTEROL [2]: 71.5 mg/dL
- CREATINE PHOSPHOKINASE [2]: 237.17 u/L
- CREATININE [2]: 0.17 mg/dL
- GLUCOSE [2]: 137 mg/dL
- LACTATE DEHYDROGENASE [2]: 146.17 u/L
- LIPASE [2]: 11.5 u/L
- PHOSPHORUS [2]: 10.13 mg/dL
- POTASSIUM [2]: 6 MEQ/L
- SODIUM [2]: 145 MEQ/L
- TOTAL BILIRUBIN [2]: 0.13 mg/dL
- TOTAL PROTEIN [2]: 5.82 G/DL
- URIC ACID [2]: 0.62 mg/dL
- ABSOLUTE BASOPHIL [3]: 0 CELLS/uL
- ABSOLUTE EOSINOPHIL [3]: 0 CELLS/uL
- ABSOLUTE LYMPHOCYTE [3]: 8155 CELLS/uL
- ABSOLUTE MONOCYTE [3]: 60.33 CELLS/uL
- ABSOLUTE SEGMENTED NEUTROPHIL [3]: 851.33 CELLS/uL
- BASOPHIL [3]: 0%
- EOSINOPHIL [3]: 0%
- ERYTHROCYTE COUNT [3]: 5.22 x10E6/uL
- HEMATOCRIT [3]: 32.5%
- HEMOGLOBIN [3]: 12.8 G/DL
- LEUKOCYTE COUNT [3]: 9.07 x10E3/uL
- LYMPHOCYTE [3]: 90%
- MEAN CORPUSCULAR HEMOGLOBIN [3]: 24.53 pg
- MEAN CORPUSCULAR HEMOGLOBIN CONCENTRATION [3]: 39.4 G/DL
- MEAN CORPUSCULAR VOLUME [3]: 62.3 fL
- MONOCYTE [3]: 0.67%
- NEUTROPHIL [3]: 9.33%
- NUCLEATED RED BLOOD CELLS [3]: 0 /100WBC
- PLATELET COUNT [3]: 925.67 x10E3/uL
- ALANINE AMINOTRANSFERASE [3]: 55.67 u/L
- ALBUMIN [3]: 3.93 G/DL
- ALKALINE PHOSPHATASE [3]: 332.67 u/L
- ASPARTATE AMINOTRANSFERASE [3]: 81.67 u/L
- BLOOD UREA NITROGEN [3]: 13.67 mg/dL
- CARBON DIOXIDE [3]: 34.33 mmol/L
- CHLORIDE [3]: 98.67 MEQ/L
- CHOLESTEROL [3]: 82.67 mg/dL
- CREATINE PHOSPHOKINASE [3]: 214.67 u/L
- CREATININE [3]: 0.14 mg/dL
- GLUCOSE [3]: 150.67 mg/dL
- LACTATE DEHYDROGENASE [3]: 142.33 u/L
- LIPASE [3]: 9.33 u/L
- PHOSPHORUS [3]: 10.87 mg/dL
- POTASSIUM [3]: 5.64 MEQ/L
- SODIUM [3]: 144.73 MEQ/L
- TOTAL BILIRUBIN [3]: 0.17 mg/dL
- TOTAL PROTEIN [3]: 5.97 G/DL
- URIC ACID [3]: 0.47 mg/dL
